Laboratory results reported in patent publication US12312327B2, “Crystal of 1,3,5-triazine derivative or solvate thereof and method for producing same” (Shionogi & Co., Ltd., priority 2019, dated 2025).

Columns and labels:
[1] = Flowability test (Compressibility index and Hausner ratio); assay type: physicochemical; conditions: for Compressibility index (%): (V0−Vf)/V0×100; for Hausner ratio: V0/Vf; for V0 (mL), loose bulk volume: about 10 g sample in 50 mL measuring cylinder, no compaction; for V0 (mL), loose bulk volume / Vf (mL), final tap volume: average of three; for Vf (mL), final tap volume: about 10 g sample, tapped until volume difference <= 0.5 mL
Description: 1) About 10 g of a sample was gently put into a 50 mL measuring cylinder, and the sample amount was measured.
2) The upper surface of the powder layer was carefully leveled without compaction, and the loose bulk volume (V0) was read.
3) The measuring cylinder was mounted on a support stand of a powder tester (PT-X type, Hosokawa Micron Corporation).
4) The powder sample was tapped 10 times, 500 times, 1250 times, 2500 times and the corresponding bulk volumes (V10, V500, V1250, V2500) were read.
5) The process was ended when the volume difference was equal to or less than the minimum scale (0.5 mL), and the final bulk volume was defined as the final tap volume (Vf).
6) The steps 1) to 5) were repeated three times and measured, and the average values were adopted for calculation of the Compressibility index and the Hausner ratio.
Compressibility index=(V0−Vf)/V0×100 Hausner ratio=V0/Vf

[2] = Solid stability test (80° C. hermetically sealed, one week, HPLC Method D); assay type: physicochemical; conditions: for Residual ratio (%): sealed storage, content by HPLC; for Types of analogous substances generated: 80° C. hermetically sealed, one week
Description: Column: Cadenza CD-C18, φ 3.0×150 mm, 3 μm
Flow rate: 0.55 mL per minute
UV detection wavelength: 262 nm
Mobile phase A: 0.1% TFA aqueous solution
Mobile phase B: Acetonitrile
5 mg sample (n=4) was precisely weighed in 2 mL vial, capped, and stored at a predetermined temperature (sealed storage). Then, each sample was taken out after storage for a predetermined period, and stability (content) was evaluated.
80° C. hermetically sealed
Each vial was washed out into a 25 mL volumetric flask.
Diluting medium: acetonitrile/water=1/1

SMILES: C[C@@H](Cn1c(=O)[nH]/c(=N\c2ccc(Oc3ccccn3)cc2)n(Cc2ccc(Cl)cc2)c1=O)C(=O)O [Anhydrous crystal Form I of compound represented by Formula ]
- Compressibility index (%) [1]: 25.4%
- Hausner ratio [1]: 1.3
- V0 (mL), loose bulk volume [1]: 19.0 mL
- Vf (mL), final tap volume [1]: 14.2 mL
- Flowability compared with the other crystal forms ([1]; from Compressibility index, Table 15): better flowability as compared with the other two crystal forms
- Peak area (%) of analogous substance, retention time 15.5 min ([2]; 80° C. 1W): 0.16%
- Peak area (%) of analogous substance, retention time 17.1 min ([2]; 80° C. 1W): 0.04%
- Peak area (%) of analogous substance, retention time 20.6 min ([2]; 80° C. 1W): 0.03%
- Purity (%) ([2]; 80° C. 1W): 99.77%
- Residual ratio (%) ([2]; 80° C. 1W): 99.79%
- Types of analogous substances generated [2]: three types
- Peak area (%) of analogous substance, retention time 15.5 min ([2]; Initial): 0.16%
- Peak area (%) of analogous substance, retention time 17.1 min ([2]; Initial): 0.05%
- Peak area (%) of analogous substance, retention time 20.6 min ([2]; Initial): 0.03%
- Purity (%) ([2]; Initial): 99.76%

SMILES: C[C@@H](Cn1c(=O)[nH]/c(=N\c2ccc(Oc3ccccn3)cc2)n(Cc2ccc(Cl)cc2)c1=O)C(=O)O [Dihydrate crystal of compound represented by Formula (I)]
- Compressibility index (%) [1]: 35.9%
- Hausner ratio [1]: 1.6
- V0 (mL), loose bulk volume [1]: 30.7 mL
- Vf (mL), final tap volume [1]: 19.7 mL
- Peak area (%) of analogous substance, retention time 3 min ([2]; 80° C. 1W): 0.05%
- Peak area (%) of analogous substance, retention time 15.5 min ([2]; 80° C. 1W): 0.09%
- Purity (%) ([2]; 80° C. 1W): 99.86%
- Residual ratio (%) ([2]; 80° C. 1W): 99.13%
- Types of analogous substances generated [2]: two types
- Peak area (%) of analogous substance, retention time 15.5 min ([2]; Initial): 0.09%
- Purity (%) ([2]; Initial): 99.91%

SMILES: C[C@@H](Cn1c(=O)[nH]/c(=N\c2ccc(Oc3ccccn3)cc2)n(Cc2ccc(Cl)cc2)c1=O)C(=O)O [Ethyl acetate/hexane solvate crystal of compound represented] [reference compound]
- Compressibility index (%) [1]: 36.7%
- Hausner ratio [1]: 1.6
- V0 (mL), loose bulk volume [1]: 36.8 mL
- Vf (mL), final tap volume [1]: 23.3 mL
- Peak area (%) of analogous substance, retention time 3 min ([2]; 80° C. 1W): 0.06%
- Peak area (%) of analogous substance, retention time 5.8 min ([2]; 80° C. 1W): 0.01%
- Peak area (%) of analogous substance, retention time 10.5 min ([2]; 80° C. 1W): 0.14%
- Peak area (%) of analogous substance, retention time 14 min ([2]; 80° C. 1W): 0.04%
- Peak area (%) of analogous substance, retention time 16.9 min ([2]; 80° C. 1W): 0.03%
- Purity (%) ([2]; 80° C. 1W): 99.71%
- Residual ratio (%) ([2]; 80° C. 1W): 99.03%
- Types of analogous substances generated [2]: five types
- Peak area (%) of analogous substance, retention time 3 min ([2]; Initial): 0.06%
- Peak area (%) of analogous substance, retention time 5.8 min ([2]; Initial): 0.01%
- Peak area (%) of analogous substance, retention time 10.5 min ([2]; Initial): 0.15%
- Peak area (%) of analogous substance, retention time 14 min ([2]; Initial): 0.04%
- Peak area (%) of analogous substance, retention time 16.9 min ([2]; Initial): 0.04%
- Purity (%) ([2]; Initial): 99.71%
